Reference: patent US20230293539A1, “MLL1-WDR5 PROTEIN-PROTEIN INTERACTION INHIBITOR COMPOUNDS AND USES THEREOF” (HUYABIO International, LLC, priority 2022, published 2023)

Assays:
[1] = tested on: MV 411 cells; assay: Cell Viability Assay (CellTiter-Glo); type: cell-based; conditions: Homo sapiens, MV4-11, 72 hours, read-out: IC50 (anti-proliferative activity against leukemia cells)
Procedure: Cell lines and maintenance: All cell lines (MV 411) used for in vitro and in vivo studies were supplied as part of Wuxi AppTech cell bank. Cell lines were maintained in a medium supplemented with 10% heat inactivated fetal bovine serum at 37° C., in an atmosphere of 5% CO2, in air. The tumor cells were routinely subcultured twice weekly. The cells growing in an exponential growth phase were used for the in vitro cell potency and in vivo efficacy studies.
EXAMPLE 1: Cell Viability Assay: For cell cytotoxicity assays, 2000 cells/well were plated in 384-well plates. Twenty four hours after plating, cells were treated with inhibitors at the indicated compound concentrations. On Day 3 (72 hours), cells were lysed with CellTiter-Glo® Luminescent Cell Viability Assay reagent (Promega) and luminescence was read using the EnVision Multi-plate reader. To calculate IC50, a dose-response curve is generated using a nonlinear regression model with a sigmoidal dose response. The formula of surviving rate is shown below. IC50 values were automatically generated by GraphPad Prism 8.0. See FIG. 1A and FIG. 1B and Tables 3 and 4.

[2] = target: WDR5 (Homo sapiens, UniProt P61964); assay: WDR5 TR-FRET Assay; type: binding; conditions: 5 nM WDR5 protein, 10 nM peptide, read-out: IC50 (MLL1-WDR5 PPI inhibitory activity)
Procedure: WDR5 TR-FRET Assay Procedure: Stock compounds were transferred to the assay plate by Echo Liquid Handler. Reactions were performed in the assay buffer (1×PBS, 300 mM NaCl, 0.5 mM TCEP, 0.1% CHAPS) containing 5 nM WDR5 protein, 10 nM peptide (Ac-ARTEVHLRKS-[Ahx-Ahx][C]-Alexa Fluor 488-NH2) and 0.25 nM Tb-anti His antibody (Tb-Ab) in 384-well white plate (PerkinElmer) with a final volume of 20 μl. Compounds were incubated with WDR5 protein for 30 min at room temperature. Plates were covered, protected from light and incubated for 60 min. at room temperature after adding the peptide and Tb-Ab. EnVision Multimode Plate Reader (PerkinElmer) was used for the TR-FRET assay with excitation wavelength at 340 nm and emission wavelength at 495 and 520 nm. The ratio of the 520/495 nm wavelengths were used to assess the degree of the FRET signal. IC50 was calculated by fitting the inhibition data using XLfit software to sigmoidal dose-response model.

[3] = Compound formulation stability assay; type: physicochemical; conditions: 10 mg/mL in 10% DMSO/10% solutol HS 15/80% water, 2-8° C.
Procedure: Compound formulation stability assay: Test articles were formulated in 10% DMSO/10% solutol HS 15/80% water and stored at 4° C. Formulated compounds were analyzed by a HPLC-UV method for actual concentrations and % remaining on Day 1, 4 and 7 after formulation to determine the stability of the formulated test article. The HPLC system was equipped with Shimadzu LC-20 high-performance liquid chromatograph, SIL-20AC auto sampler, LC-20AB pump and SPD-M20A detector. A Waters XBridge C18 (4.6*100 mm) column was applied for the separation. […]

[4] = Mouse PK (oral); type: in vivo, C57/B16 mice; conditions: for Cmax: plasma; for AUC(0-t) / half-life: C57/B16, plasma
Procedure: Mouse PK: Animals were dosed with a single intravenous bolus or oral gavage administration in naïve C57/B16 mice (Beijing Vital River Laboratory Animal Co., LTD). Blood samples were collected at the respective sampling time points. The quantification of compound concentrations in mouse or rat plasma was quantified using LC-MS/MS method. Plasma concentration versus time data was analyzed by non-compartmental mode approaches using the WinNonlin software program (version 6.3 or above, Pharsight). Pharmacokinetic parameters, including C0 (initial concentration after drug administration), […], Vdss (volume of distribution), Cmax (maximum peak concentration of the drug), Tmax (time required to reach Cmax) T1/2 (time required for drug concentration to decrease by 50% after administration), AUC0-last (area under the concentration-time curve from dosing time t=0 to the time of the last measured concentration), AUC0-inf (total drug exposure across time), MRT0-last (mean residence time from dosing time t=0 to the time of the last measured concentration), MRT0-inf f (mean residence time of total drug exposure), bioavailability (%) (the percentage (or the fraction F) of an administered drug dose that reaches the systemic circulation) for IV and PO groups were calculated. See Table 7 and FIGS. 6A, 6B, 6C and 6D.

[5] = Liver S9 stability assay; type: in vitro ADME, human; conditions: for half-life at 1 μM / microsomal CLint at 1 μM: Human liver S9; for % Remaining after 60 min incubation: Human liver S9, 1 μM, 5 mM GSH, 37° C.
Procedure: (§1) Liver S9 stability assay: Test compounds (1 μM) and positive control were incubated with 5 mM GSH and liver S9 (1 mg protein/ml) from multiple species (including human, monkey, dog, rat and mouse) at 37° C. at 0, 10, 30, and 60 minutes in duplicate. After adding the stop solution, 100 μL of supernatant were analyzed by LC-MS/MS. The % remaining of test compound, T1/2 (min), and CLint (μL/min/mg) were calculated and were reported.

[6] = Liver S9 stability assay; type: in vitro ADME, rat; conditions: for half-life at 1 μM / microsomal CLint at 1 μM: Rat liver S9; for % Remaining after 60 min incubation: Rat liver S9, 1 μM, 5 mM GSH, 37° C.
Procedure: as §1

[7] = Liver S9 stability assay; type: in vitro ADME, dog; conditions: for half-life at 1 μM / microsomal CLint at 1 μM: Dog liver S9; for % Remaining after 60 min incubation: Dog liver S9, 1 μM, 5 mM GSH, 37° C.
Procedure: as §1

[8] = Liver S9 stability assay; type: in vitro ADME, mouse; conditions: for half-life at 1 μM / microsomal CLint at 1 μM: Mouse liver S9; for % Remaining after 60 min incubation: Mouse liver S9, 1 μM, 5 mM GSH, 37° C.
Procedure: as §1

[9] = WBS (whole blood stability) assay; type: in vitro ADME; conditions: for % Remaining after 60 min incubation: 2 μM, 37° C.
Procedure: WBS (whole blood stability) assay: The blood samples were collected freshly from multiple species including human, monkey, dog, rat and mouse. 2 μM of test compound and positive control were incubated with the whole blood at 37° C. at 0, 10, 30, 60, and 120 minutes in duplicate. After adding the stop solution, 200 μL of supernatant were analyzed by LC-MS/MS. The % remaining of test compound and T1/2 (min) were calculated and reported.

[10] = Dog PK (oral); type: in vivo, Beagle dogs; conditions: for Cmax / AUC(0-t) / half-life: Beagle, plasma
Procedure: Dog PK: Fasted or fed non-naïve Beagle dogs (Marshall Bioresources, Beijing, China) were administered a single intravenous bolus or oral gavage administration of test compounds at respective doses. Blood samples for plasma isolation were collected from a peripheral vessel, from restrained, non-sedated animals at the respective sampling time points. The quantification of compound concentrations in dog plasma was quantified using LC-MS/MS method. Plasma concentration versus time data was analyzed by non-compartmental mode approaches using the WinNonlin software program (version 6.3 or above, Pharsight). Pharmacokinetic parameters, including C0, CL, Vdss, Cmax, Tmax T1/2, AUC0-last, AUC0-inf, MRT0-last, MRT0-inf, bioavailability (%) for IV and PO groups were calculated. See FIGS. 9A, […], 9C and FIGS. 10A, 10B, 10C, and 10D.

C[C@H]1CN(c2cc(F)c(-c3cnc(N4CCOCC4)nc3)cc2Nc2ncnc(Cl)c2N)CCN1C [DDO-2213_020, (S)-6-chloro-N4-(2-(3,4-dimethylpiperazin-1-yl)-4-fluoro-5-(2-morpholinopyrimidin-5-yl)phenyl)pyrimidine-4,5-diamine]
IC50 [1]: 5.81 µM
IC50 [2]: 0.00766 µM
Accuracy % (Day 0) [3]: 89.8%
Formulation Appearance (Day 0) [3]: clear solution
Remaining % (Day 0) [3]: 100%
Accuracy % (Day 1) [3]: 91.6%
Formulation Appearance (Day 1) [3]: clear solution
Remaining % (Day 1) [3]: 102%
Accuracy % (Day 4) [3]: 92.0%
Formulation Appearance (Day 4) [3]: clear solution
Remaining % (Day 4) [3]: 100%
Accuracy % (Day 7) [3]: 95.5%
Formulation Appearance (Day 7) [3]: clear solution
Remaining % (Day 7) [3]: 104%
F ([4]; 10 mpk): 61.5%
F ([4]; 30 mpk): 107.0%
Cmax ([4]; C57/B16, 10 mg/kg, 10 mpk): 1670 nM
Cmax ([4]; C57/B16, 30 mg/kg, 30 mpk): 5470 nM
AUC(0-t) ([4]; 10 mg/kg, 10 mpk): 7.1 µM·h
half-life ([4]; 10 mg/kg, 10 mpk): 3.3 h
AUC(0-t) ([4]; 30 mg/kg, 30 mpk): 37 µM·h
half-life ([4]; 30 mg/kg, 30 mpk): 2.7 h
half-life at 1 μM [5]: > 2.42 h
microsomal CLint at 1 μM [5]: < 4.8 µL/min/mg
% Remaining after 60 min incubation [5]: 92.1%
half-life at 1 μM [6]: > 2.42 h
microsomal CLint at 1 μM [6]: < 4.8 µL/min/mg
% Remaining after 60 min incubation [6]: 88.8%
half-life at 1 μM [7]: > 2.42 h
microsomal CLint at 1 μM [7]: < 4.8 µL/min/mg
% Remaining after 60 min incubation [7]: 78%
half-life at 1 μM [8]: > 2.42 h
microsomal CLint at 1 μM [8]: < 4.8 µL/min/mg
% Remaining after 60 min incubation [8]: 93.4%
half-life at 2 μM ([9]; Dog whole blood): > 2.41 h
% Remaining after 60 min incubation ([9]; Dog whole blood): 101%
half-life at 2 μM ([9]; Human whole blood): 5 h
% Remaining after 60 min incubation ([9]; Human whole blood): 103%
half-life at 2 μM ([9]; Mouse whole blood): > 2.41 h
% Remaining after 60 min incubation ([9]; Mouse whole blood): 104%
half-life at 2 μM ([9]; Rat whole blood): > 2.41 h
% Remaining after 60 min incubation ([9]; Rat whole blood): 1%

C[C@@H]1CN(c2ncc(-c3cc(Nc4ncnc(Cl)c4N)c(N4CCN(C)[C@@H](C)C4)cc3F)cn2)C[C@H](C)O1 [DDO-2213_023, 6-chloro-N4-(5-(2-((2S,6R)-2,6-dimethylmorpholino)pyrimidin-5-yl)-2-((S)-3,4-dimethylpiperazin-1-yl)-4-fluorophenyl)pyrimidine-4,5-diamine]
IC50 [1]: 4.06 µM
Accuracy % (Day 0) [3]: 89.9%
Formulation Appearance (Day 0) [3]: clear solution
Remaining % (Day 0) [3]: 100%
Accuracy % (Day 1) [3]: 81.3%
Formulation Appearance (Day 1) [3]: clear solution
Remaining % (Day 1) [3]: 90.4%
Accuracy % (Day 4) [3]: 92.2%
Formulation Appearance (Day 4) [3]: clear solution
Remaining % (Day 4) [3]: 100%
Accuracy % (Day 7) [3]: 91.5%
Formulation Appearance (Day 7) [3]: clear solution
Remaining % (Day 7) [3]: 99.1%
F ([4]; 10 mpk): 82.5%
F ([4]; 30 mpk): 93.8%
Cmax ([4]; C57/B16, 10 mg/kg, 10 mpk): 1320 nM
Cmax ([4]; C57/B16, 30 mg/kg, 30 mpk): 3430 nM
AUC(0-t) ([4]; 10 mg/kg, 10 mpk): 16.4 µM·h
half-life ([4]; 10 mg/kg, 10 mpk): 11.1 h
AUC(0-t) ([4]; 30 mg/kg, 30 mpk): 56 µM·h
half-life ([4]; 30 mg/kg, 30 mpk): 13.3 h
F ([10]; 1.5 mpk): 105.0%
F ([10]; 4.5 mpk): 88.8%
Cmax ([10]; 1.5 mg/kg, 1.5 mpk): 188 nM
Cmax ([10]; 4.5 mg/kg, 4.5 mpk): 445 nM
AUC(0-t) ([10]; 1.5 mg/kg, 1.5 mpk): 5.28 µM·h
half-life ([10]; 1.5 mg/kg, 1.5 mpk): 63.6 h
AUC(0-t) ([10]; 4.5 mg/kg, 4.5 mpk): 13.4 µM·h
half-life ([10]; 4.5 mg/kg, 4.5 mpk): 48.2 h
half-life at 1 μM [5]: > 2.42 h
microsomal CLint at 1 μM [5]: < 4.8 µL/min/mg
% Remaining after 60 min incubation [5]: 81.8%
half-life at 1 μM [6]: > 2.42 h
microsomal CLint at 1 μM [6]: < 4.8 µL/min/mg
% Remaining after 60 min incubation [6]: 101%
half-life at 1 μM [7]: > 2.42 h
microsomal CLint at 1 μM [7]: < 4.8 µL/min/mg
% Remaining after 60 min incubation [7]: 112%
half-life at 1 μM [8]: 2.1 h
microsomal CLint at 1 μM [8]: 5.5 µL/min/mg
% Remaining after 60 min incubation [8]: 71.5%
half-life at 2 μM ([9]; Dog whole blood): > 2.41 h
% Remaining after 60 min incubation ([9]; Dog whole blood): 97.3%
half-life at 2 μM ([9]; Human whole blood): 8.75 h
% Remaining after 60 min incubation ([9]; Human whole blood): 103%
half-life at 2 μM ([9]; Mouse whole blood): > 2.41 h
% Remaining after 60 min incubation ([9]; Mouse whole blood): 103%
half-life at 2 μM ([9]; Rat whole blood): > 2.41 h
% Remaining after 60 min incubation ([9]; Rat whole blood): 103%
